Measurements: article PMC13242511, “Disrupting Notch signalling by a small molecule inhibiting dihydroorotate dehydrogenase activity” (Scientific Reports, 2026)
Where a SMILES comes first, the peptide text is derived from it. The star is where a group is joined. Cbz = O=C(OCc1ccccc1)*

Assays:
Drosophila melanogaster = details: cited from earlier work
[1] = system: mNotch1ΔE fused to an HiBiT tag; test: HiBit reporter assay; assay type: cell-based, mouse; details: 24 h, 14-point dose-response; Supplemental Fig. 8D,G
Procedure: The Notch1ΔE construct used to generate the Notch reporter cell line (see above) was first cloned in frame into the pBiT3.2-C [TK/HiBiT/Blast] Vector (Promega) and then stably introduced into HEK293T wild type cells, using Lipofectamine transfection, as described. Analogous to the Notch reporter cell line, Blasticidin was used as a selection marker (0.1 mg/ml) and stable cell lines with robust luciferase signals were generated. […] A clone (#D2) with an empty HiBit vector stably integrated was used as control.
20 µl containing 4,000 cells were seeded on 384-well pre-spotted compound plates (Greiner, cat #781080). Cells were incubated for 24 h and viability was determined using CellTiter-Fluor (Promega, cat # G6080), following the manufacturer’s instructions. Next, cells were subjected to the HiBit assay according to the manufacturer’s instructions (Promega, cat # N3030). Prior to cell lysis, the tissue culture plates were allowed to cool down to room temperate. Fluorescence and luminescence signals were recorded using a SpectraMax i3 (Molecular devices) and signals were read at different time-points to determine optimal signal stability. Cells cultivated only with DMSO were used as a reference to determine effects of compounds. MG132, Bafilomycin A1 and the GSI RO4929097 served as additional controls. Celastrol was used to determine the assay window, and a minimum of two technical replicates were measured per assay.

Notch signalling [2] = test: Notch reporter assay (12xCSL firefly luciferase / renilla luciferase, HEK293T Notch1ΔE reporter cell line clone #A1-11); assay type: cell-based; design: Confirmation screen: unit not given here; details: for inhibitor ratio in % of DMSO in 3 point DR: 3-point DR confirmation screen, Notch reporter assay
Method in brief: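 Compounds at two-fold concentration in 10 µl medium were brought to one-fold by adding 10 µl holding 4000 Notch reporter cells (clone #A1-11) per well of a 384-well plate. After 24 h, Promega dual-GLO firefly and renilla luciferase were read on a SpectraMaxi3. Dose-response curves were fitted with a log(inhibitor) vs. response variable-slope model.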

γ-secretase complex = γ-secretase complex (Homo sapiens, UniProt P49768); test: APP-C99 counter assay (GSI reporter assay); assay type: cell-based; details: for 3p-DR in % of DMSO counter: APP-C99 counter assay
Method in brief: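 Cells transfected with APP-C99 firefly luciferase reporter plus renilla normalization plasmid, seeded 24 h later onto compound plates and cultured 24 h. Dual luciferase read in triplicate per concentration; IC50 from variable-slope log(inhibitor) fit, with AUC also calculated from dose–response curves.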

Notch signalling [3] = test: Notch reporter assay (12xCSL firefly luciferase / renilla luciferase, HEK293T Notch1ΔE reporter cell line clone #A1-11); assay type: cell-based; details: 24 h, unit from Fig. 2 legend
[4] = system: Notch1 ICD-induced mouse model of T-ALL; design: method as in PMID 37648673; details: cited from earlier work
[5] = system: T-ALL and breast cancer cell lines; test: Growth inhibition in tumour cell lines (panel, cell lines not named singly); assay type: cell-based; details: overview in comparison to compound C; Supplemental Fig. 9
Excerpt: We next investigated whether compounds A-E affected growth and viability of cell lines from T-cell acute lymphoblastic leukaemia (T-ALL) and breast cancer, two tumour types in which elevated Notch signalling has been implicated in tumorigenesis. […] When testing analogues of compounds B and C, five of the seven B analogues and one of the two C analogues produced dose–response curves and IC50s, which however were higher compared to the original hits (Supplemental Fig. 5A; IC50s are presented in Supplemental Table 6).
Compounds were spotted on white 384-well tissue culture plates (Greiner, cat #781080) using an Echo 525 Acoustic liquid handler (Labcyte). Cells were grown to 80% confluence, detached if required, counted and 20 µl containing 2000–4000 cells per well was then seeded in each well and cultivated for three (4,000 cells seeded) and six days (2,000 cells seeded). […] Luciferase activity (reading out metabolic activity) was determined using the CellTiter-Glo 2.0 kit (CTG, Promega, cat #G9242) following the manufacturer’s instructions and luminescence was measured on a SpectraMaxi3 or Varioscan plate reader (Molecular Devices, Thermofisher).

[6] = 10 µM, sheet conf vs counter 10 µM, same values as 3-point DR confirmation screen
[7] = 25 µM, Notch reporter 3-point dose-confirmation assay, sheet "conf vs counter 25 µM"
[8] = 10 µM, sheet conf vs counter 10 µM
[9] = 25 µM, sheet "conf vs counter 25 µM", same values given as % of DMSO in sheet "3p-DR in % of DMSO counter"
[10] = overview in comparison to compound C, Supplemental Fig. 9

Molecule	phenotype after chemical DHODH inhibition (Drosophila melanogaster)	HiBiT luciferase signal [1]	inhibitor ratio in % of DMSO in 3 point DR (Notch signalling [2]; 10µM)	Confirmation screen (Notch signalling [2]; [6])	inhibitor ratio in % of DMSO in 3 point DR (Notch signalling [2]; 25µM)	Confirmation screen (Notch signalling [2]; [7])	inhibitor ratio in % of DMSO in 3 point DR (Notch signalling [2]; 1,25µM)	3p-DR in % of DMSO counter (γ-secretase complex; 10µM)	Counter screen (Hek APP-C99) (γ-secretase complex; [8])	3p-DR in % of DMSO counter (γ-secretase complex; 25µM)	Counter screen (Hek APP-C99) (γ-secretase complex; [9])	3p-DR in % of DMSO counter (γ-secretase complex; 1,25µM)	Primary screen at 10 µM (Notch reporter signal) (Notch signalling [3])	outcome in Notch1 ICD-induced mouse model of T-ALL [4]	IC50 (Notch signalling [2]; expanded dose range 500 nM-25 pM, Fig. 7E, read-out: IC50, Notch reporter activity) [nM]	Notch assay (Notch signalling [2]; [10])	APP assay (γ-secretase complex; [10])	viability assay [5]
Cc1c(C(=O)O)[nH]c(=O)[nH]c1=O [5-methyl orotate]	phenocopied Notch mutations	–	–	–	–	–	–	–	–	–	–	–	–	–	–	–	–	–
CO/C1=C\C(C)=C\[C@@H](C)[C@@H](O)[C@@H](C)C/C(C)=C/C=C/[C@H](OC)[C@@H]([C@@H](C)[C@@H](O)[C@H](C)[C@@]2(O)C[C@@H](O)[C@H](C)[C@@H](C(C)C)O2)OC1=O [Bafilomycin A1, reference compound]	–	increased the HiBiT signal	–	–	–	–	–	–	–	–	–	–	–	–	–	–	–	–
Cc1ccc(NC(=O)c2cnc(SCc3ccc(F)cc3)n(C)c2=O)cc1C [CBK287674]	–	–	73.8 % of DMSO	73.8	47.2 % of DMSO	47.2	99.3 % of DMSO	109.0 % of DMSO	108.9	82.2 % of DMSO	82.2	116.8 % of DMSO	65.6 % of DMSO	–	–	–	–	–
COc1ccc(-c2noc([C@@H]3Cc4[nH]cnc4CN3C(=O)CCC(=O)O)n2)cc1 [CBK288967]	–	–	51.6 % of DMSO	51.6	56.4 % of DMSO	56.4	72.4 % of DMSO	62.4 % of DMSO	62.4	22.0 % of DMSO	22.0	131.3 % of DMSO	51.7 % of DMSO	–	–	–	–	–
c1ccc2oc(CN3Cc4nc[nH]c4C[C@H]3c3nc(-c4ccc5c(c4)OCO5)no3)cc2c1 [CBK288998]	–	–	72.8 % of DMSO	72.8	66.3 % of DMSO	66.3	89.6 % of DMSO	93.1 % of DMSO	93.1	78.1 % of DMSO	78.1	112.2 % of DMSO	68.4 % of DMSO	–	–	–	–	–
C[C@@H]1C(=O)O[C@H]2[C@H]1CC[C@@]1(C)Cc3sc(NC(=O)CCC(=O)O)nc3[C@@H](C)[C@H]21 [CBK289429]	–	–	38.0 % of DMSO	38.0	25.1 % of DMSO	25.1	77.4 % of DMSO	23.7 % of DMSO	23.6	12.4 % of DMSO	12.4	76.3 % of DMSO	35.5 % of DMSO	–	–	–	–	–
C[C@@H]1C(=O)O[C@H]2[C@H]1CC[C@@]1(C)Cc3sc(NC(=O)CN(C)C)nc3[C@@H](C)[C@H]21 [CBK289431]	–	–	39.6 % of DMSO	39.6	35.0 % of DMSO	35.0	40.7 % of DMSO	58.4 % of DMSO	58.4	61.0 % of DMSO	61.0	71.4 % of DMSO	41.2 % of DMSO	–	–	–	–	–
O=C(O)c1c2c(nc3ccccc13)C(=Cc1ccc3c(c1)OCCO3)CC2 [CBK297479]	–	–	15.2 % of DMSO	15.2	7.0 % of DMSO	7.0	22.8 % of DMSO	16.4 % of DMSO	16.4	13.7 % of DMSO	13.7	29.7 % of DMSO	18.5 % of DMSO	–	–	–	–	–
COc1cccc(OCC2CCCN(C(=O)CCc3cnn(C)c3)C2)c1 (stereo not shown) [CBK306931]	–	–	57.0 % of DMSO	57.0	34.9 % of DMSO	34.9	63.9 % of DMSO	59.0 % of DMSO	59.0	46.1 % of DMSO	46.1	61.2 % of DMSO	46.7 % of DMSO	–	–	–	–	–
CC(C)C[C@@H](C=O)NC(=O)[C@H](CC(C)C)NC(=O)[C@H](CC(C)C)NC(=O)OCc1ccccc1 [MG132, reference compound] (Cbz-Leu-Leu-Leu-aldehyde)	–	increased the HiBiT signal	–	–	–	–	–	–	–	–	–	–	–	–	–	–	–	–
Cc1c(-c2ccc(-c3ccccc3F)cc2)nc2ccc(F)cc2c1C(=O)O [brequinar]	–	–	–	–	–	–	–	–	–	–	–	–	–	curative	–	–	–	–
BAY2402234 [reference compound]	–	–	–	–	–	–	–	–	–	–	–	–	–	–	11	higher potency	higher potency	reduced
